Among the data in patent US4803303A, “N-substituted pseudo-aminosugars, their production and use” (Takeda Chemical Industries, Ltd., priority 1981, dated 1989) are IC50 and α-glucosidase inhibitory activity values, retold here.

Each structure is given as a SMILES string. Structures can show the parent of a compound that is named as a salt.

For the first assay, the target named is maltase (from porcine intestinal mucosa). As to the kind of experiment: inhibitory activity against maltase prepared from porcine intestinal mucosa (substrate maltose). In kind it is biochemical. Particulars: given in the examples; read-out: IC50 (maltase). On the procedure: (§1) The inhibitory activities of the compounds of this invention against α-glucosidase (yeast, type I, produced by Sigma Chemical Co. the United States of America) as well as maltase and saccharase prepared from porcine intestinal mucosa (prepared in accordance with the procedure as described by B. Borgstro m and A. Dahlgvist in Acta Chem. Scand.; 12, 1997-2006, (1958)), when maltose and sucrose are used as a substrate, are determined by adding to 0.25 ml of a solution of an enzyme prepared by diluting suitably with 0.02M phosphate buffer (pH 6.8) 0.5 ml of a solution of an inhibitory substance to be tested in the same buffer and 0.25 ml of 0.05M maltose or 0.05M sucrose as the substrate in the same buffer, allowing the mixture to react at 37° C. for 10 minutes, then adding 3 ml of Glucose B-Test Reagent (a glucose oxidase reagent for measurement of glucose, produced by Wako Pure Chemical Co., Japan), further warming the mixture at 37° C. for 20 minutes, and measuring the absorbance of the reaction solution at 505 nm. […]
Take `CC(C)(C)c1cc(CN[C@H]2C[C@](O)(CO)[C@@H](O)[C@H](O)[C@H]2O)cc(C(C)(C)C)c1O` [Example 40, N-(3,5,-di-tert-butyl-4-hydroxybenzyl)valiolamine]: the IC50 came out at 43 nM. Consider `OC[C@H]1C[C@H](NCC(O)COc2ccccc2)[C@H](O)[C@@H](O)[C@@H]1O` (some centres unmarked) [Example 18, N-(2-hydroxy-3-phenoxypropyl)validamine], for which the IC50 was 3400 nM. In the case of `OCC(N[C@H]1C[C@H](CO)[C@@H](O)[C@H](O)[C@H]1O)[C@@H](O)[C@H](O)[C@H](O)CO` (stereo partly drawn) [Example 19, N-(D-arabino-2,3,4,5-tetrahydroxy-1-hydroxymethylpentyl)validamine], the IC50 is 590 nM. Same read-out and setting: as for `OCC(N[C@H]1C[C@H](CO)[C@@H](O)[C@H](O)[C@H]1O)c1ccccc1` (stereo partly drawn) [N-[α-(hydroxymethyl)benzyl]validamine], the figure is 4500 nM; as for `OC[C@@]1(O)C[C@H](NC2CCCC2O)[C@H](O)[C@@H](O)[C@@H]1O` (single isomer, unassigned) [Example 38 Isomer showing [α]D^24-16.2°, N-(2-hydroxycyclopentyl)valiolamine], 58 nM; as for `COc1ccccc1C(O)CN[C@H]1C[C@](O)(CO)[C@@H](O)[C@H](O)[C@H]1O` (stereo partly drawn) [Example 41, N-(β-hydroxy-2-methoxyphenetyl)valiolamine], 63 nM. The same measure, in the same setting: as for `OC[C@@]1(O)C[C@H](NC2CCCCC2)[C@H](O)[C@@H](O)[C@@H]1O` [Example 37, N-cyclohexylvaliolamine], the figure is 410 nM.

Staying with this assay, now noted: read-out: The concentrations of 50% inhibition against maltase (substrate:maltose) IC50; Table 1; porcine intestinal mucosa maltase, substrate maltose, pH 6.8, 37° C.
For `OC[C@H]1C[C@H](NCCCc2ccccc2)[C@H](O)[C@@H](O)[C@@H]1O` [drawing 14], the IC50 turned out to be 92000 nM. As to `OC[C@@]1(O)C[C@H](NCC(O)COc2ccccc2)[C@H](O)[C@@H](O)[C@@H]1O` (some centres unmarked) [drawing 12], the IC50 amounted to 33 nM. Same read-out and setting: as for `OC[C@@]1(O)C[C@H](NCC(O)c2ccccc2)[C@H](O)[C@@H](O)[C@@H]1O` (single isomer, unassigned) [drawing 8], the figure is 50 nM; as for `OCC(CO)N[C@H]1C[C@](O)(CO)[C@@H](O)[C@H](O)[C@H]1O` [drawing 7], 15 nM; as for `OC[C@@]1(O)C[C@H](NCC(O)c2ccccc2)[C@H](O)[C@@H](O)[C@@H]1O` (single isomer, unassigned) [drawing 9], 5.8 nM. On the same count and under the same terms, as for `CC(C)(C)c1cc(CN[C@H]2C[C@H](CO)[C@@H](O)[C@H](O)[C@H]2O)cc(C(C)(C)C)c1O`, the figure is 36000 nM. Still for that read-out and setting: as for `OCC(N[C@H]1C[C@H](CO)[C@@H](O)[C@H](O)[C@H]1O)C(O)c1ccccc1` (some centres unmarked) [drawing 11], the figure is 32000 nM. With `OC[C@H]1C[C@H](NCC(O)c2ccccc2)[C@H](O)[C@@H](O)[C@@H]1O` (some centres unmarked) [drawing 10], the IC50 was found to be 1700 nM. With `OC[C@@]1(O)C[C@H](NCCc2ccccc2)[C@H](O)[C@@H](O)[C@@H]1O` [drawing 13], the IC50 was 100 nM.

The target in another assay is T1, saccharase (from porcine intestinal mucosa) (Sus scrofa, UniProt P56729).
T1 construct: maltase and saccharase prepared from porcine intestinal mucosa; from tissue; host or cells: porcine intestinal mucosa
T1 sequence (P56729 with tags, fused parts or gaps limits assumed): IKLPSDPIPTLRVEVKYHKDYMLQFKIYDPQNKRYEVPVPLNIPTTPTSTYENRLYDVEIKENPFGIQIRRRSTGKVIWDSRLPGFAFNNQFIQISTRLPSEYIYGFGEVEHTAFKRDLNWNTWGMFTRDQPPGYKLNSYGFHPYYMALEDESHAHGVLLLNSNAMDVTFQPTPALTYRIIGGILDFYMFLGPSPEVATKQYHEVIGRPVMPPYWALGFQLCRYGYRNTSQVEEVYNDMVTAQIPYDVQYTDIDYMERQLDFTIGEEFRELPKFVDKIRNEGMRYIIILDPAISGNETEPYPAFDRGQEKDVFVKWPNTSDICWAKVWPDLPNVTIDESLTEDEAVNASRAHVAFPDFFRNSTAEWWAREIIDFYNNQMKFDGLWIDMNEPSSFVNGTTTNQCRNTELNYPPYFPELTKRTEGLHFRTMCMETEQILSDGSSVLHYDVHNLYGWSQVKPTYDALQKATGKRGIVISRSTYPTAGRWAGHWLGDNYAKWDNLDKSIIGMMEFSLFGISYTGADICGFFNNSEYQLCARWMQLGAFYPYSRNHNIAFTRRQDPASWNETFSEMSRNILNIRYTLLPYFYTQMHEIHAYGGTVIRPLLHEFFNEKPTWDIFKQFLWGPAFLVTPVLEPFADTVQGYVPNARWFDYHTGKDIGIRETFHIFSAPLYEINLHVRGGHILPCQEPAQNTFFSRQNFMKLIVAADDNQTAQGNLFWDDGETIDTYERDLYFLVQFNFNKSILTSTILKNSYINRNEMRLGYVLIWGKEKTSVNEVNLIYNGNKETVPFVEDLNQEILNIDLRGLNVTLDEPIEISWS
T1 sequence (P56729 with tags, fused parts or gaps partner limits assumed): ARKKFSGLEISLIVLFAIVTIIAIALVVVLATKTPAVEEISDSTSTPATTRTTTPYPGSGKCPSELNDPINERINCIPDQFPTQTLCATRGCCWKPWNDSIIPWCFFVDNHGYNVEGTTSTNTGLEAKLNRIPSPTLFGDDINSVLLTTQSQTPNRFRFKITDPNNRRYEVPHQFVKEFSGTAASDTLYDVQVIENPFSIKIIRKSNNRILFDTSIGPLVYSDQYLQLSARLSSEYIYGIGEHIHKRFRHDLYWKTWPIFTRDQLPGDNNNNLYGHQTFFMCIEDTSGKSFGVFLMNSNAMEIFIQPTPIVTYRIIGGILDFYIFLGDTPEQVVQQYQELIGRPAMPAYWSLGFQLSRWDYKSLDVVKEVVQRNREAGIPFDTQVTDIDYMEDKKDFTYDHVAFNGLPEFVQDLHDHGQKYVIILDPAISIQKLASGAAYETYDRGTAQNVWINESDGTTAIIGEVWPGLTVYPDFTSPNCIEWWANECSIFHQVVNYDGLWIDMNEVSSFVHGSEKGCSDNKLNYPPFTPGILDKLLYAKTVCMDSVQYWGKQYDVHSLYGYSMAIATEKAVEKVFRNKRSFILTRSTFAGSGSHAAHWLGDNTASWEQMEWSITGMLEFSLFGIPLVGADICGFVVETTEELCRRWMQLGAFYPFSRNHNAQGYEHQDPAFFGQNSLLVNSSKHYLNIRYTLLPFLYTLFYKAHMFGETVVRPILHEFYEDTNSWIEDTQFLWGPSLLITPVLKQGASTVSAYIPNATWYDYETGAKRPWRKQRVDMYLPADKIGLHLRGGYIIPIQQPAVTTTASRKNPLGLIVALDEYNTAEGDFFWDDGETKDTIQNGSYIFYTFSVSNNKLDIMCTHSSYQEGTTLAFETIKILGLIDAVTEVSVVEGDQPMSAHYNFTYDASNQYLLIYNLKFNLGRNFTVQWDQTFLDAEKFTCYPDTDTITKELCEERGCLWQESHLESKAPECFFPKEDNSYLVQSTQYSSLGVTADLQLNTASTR
Put plainly: inhibitory activity against saccharase prepared from porcine intestinal mucosa (substrate sucrose). In kind it is biochemical.
Details: not given
On the procedure:
as §1
Take `OCC(CO)N[C@H]1C[C@](O)(CO)[C@@H](O)[C@H](O)[C@H]1O` [drawing 17]: the IC50 was 4.6 nM.

The same assay, now with this note: IC50 (saccharase), given in the examples.
In the case of `OC[C@H]1C[C@H](NC2CCCC2O)[C@H](O)[C@@H](O)[C@@H]1O` (some centres unmarked) [Example 21, N-(2-hydroxycyclopentyl)validamine], the IC50 is 130 nM. In turn, `OC[C@@]1(O)C[C@H](NC2CCCC2)[C@H](O)[C@@H](O)[C@@H]1O` [Example 39, N-cyclopentylvaliolamine] registered an IC50 of 25 nM. In turn, `OC[C@@]1(O)C[C@H](NC2CCCC2O)[C@H](O)[C@@H](O)[C@@H]1O` (single isomer, unassigned) [Example 38 Isomer showing [α]D^24 +40.4°, N-(2-hydroxycyclopentyl)valiolamine] yielded an IC50 of 130 nM. Regarding `OC[C@@]1(O)C[C@H](NC2CCCC2O)[C@H](O)[C@@H](O)[C@@H]1O` (single isomer, unassigned) [Example 38 Isomer showing [α]D^24-16.2°, N-(2-hydroxycyclopentyl)valiolamine], the IC50 turned out to be 24 nM. Same read-out and setting: next, `OC[C@H]1C[C@H](NC2CCCCC2O)[C@H](O)[C@@H](O)[C@@H]1O` (some centres unmarked) [Example 20, N-(2-hydroxycyclohexyl)validamine]: 96 nM.

Staying with this assay, now noted: Table 2; porcine intestinal mucosa saccharase, substrate sucrose, pH 6.8, 37° C.
In the case of `OC[C@@]1(O)C[C@H](NCC(O)c2ccccc2)[C@H](O)[C@@H](O)[C@@H]1O` (single isomer, unassigned) [drawing 19], the IC50 came to 2.9 nM. The compound `OCC(O)C(O)C(O)C(O)CN[C@H]1C[C@](O)(CO)[C@@H](O)[C@H](O)[C@H]1O` (some centres unmarked) displayed an IC50 of 36 nM. Same read-out and setting: as for `OC[C@@]1(O)C[C@H](NCC2CCCCC2)[C@H](O)[C@@H](O)[C@@H]1O`, the figure is 9.3 nM; as for `OC[C@@]1(O)C[C@H](NCC(O)c2ccccc2)[C@H](O)[C@@H](O)[C@@H]1O` (single isomer, unassigned) [drawing 18], 19 nM; as for `OC[C@@]1(O)C[C@H](NCc2ccc(Br)cc2)[C@H](O)[C@@H](O)[C@@H]1O`, 15 nM. Same read-out and setting: as for `OC[C@@]1(O)C[C@H](NCCc2ccccc2)[C@H](O)[C@@H](O)[C@@H]1O` [drawing 26], the figure is 2.3 nM. `OCC(N[C@H]1C[C@H](CO)[C@@H](O)[C@H](O)[C@H]1O)C(O)c1ccccc1` (some centres unmarked) [drawing 33] displayed an IC50 of 260 nM.

In turn, `CC(C)=CCC/C(C)=C/CN[C@H]1C[C@](O)(CO)[C@@H](O)[C@H](O)[C@H]1O` came in with an IC50 of 11 nM. Same read-out and setting: next, `OCC1(O)CC(NCc2ccco2)C(O)C(O)C1O` (centres unmarked): 15 nM; `OC[C@@]1(O)C[C@H](NCC(O)COc2ccccc2)[C@H](O)[C@@H](O)[C@@H]1O` (some centres unmarked) [drawing 20]: 8.6 nM; `OC[C@H]1C[C@H](NCCCc2ccccc2)[C@H](O)[C@@H](O)[C@@H]1O` [drawing 24]: 1900 nM. Regarding `OC[C@H]1C[C@H](NCC(O)c2ccccc2)[C@H](O)[C@@H](O)[C@@H]1O` (some centres unmarked) [drawing 32], the IC50 worked out at 22 nM.

The same assay, now with this note: given in the examples; read-out: IC50 (saccharase).
Take `CC(C)(C)c1cc(CN[C@H]2C[C@](O)(CO)[C@@H](O)[C@H](O)[C@H]2O)cc(C(C)(C)C)c1O` [Example 40, N-(3,5,-di-tert-butyl-4-hydroxybenzyl)valiolamine]: the IC50 was determined as 6.8 nM. On the same count and under the same terms, next, `OCC(N[C@H]1C[C@H](CO)[C@@H](O)[C@H](O)[C@H]1O)[C@@H](O)[C@H](O)[C@@H](O)CO` (stereo partly drawn) [Example 16, N-(L-xylo-2,3,4,5-tetrahydroxy-1-hydroxymethylpentyl)validamine]: 79 nM; `CC(C)=CCC/C(C)=C/CN[C@H]1C[C@H](CO)[C@@H](O)[C@H](O)[C@H]1O` [Example 12, N-geranylvalidamine sulfate]: 790 nM. On the same count and under the same terms, as for `COc1ccccc1C(O)CN[C@H]1C[C@](O)(CO)[C@@H](O)[C@H](O)[C@H]1O` (stereo partly drawn) [Example 41, N-(β-hydroxy-2-methoxyphenetyl)valiolamine], the figure is 9.9 nM; as for `OC[C@@]1(O)C[C@H](NC2CCCCC2)[C@H](O)[C@@H](O)[C@@H]1O` [Example 37, N-cyclohexylvaliolamine], 15 nM.

Another assay deals with α-glucoside hydrolase. As to the kind of experiment: α-glucosidase inhibitory activity (general statement). The assay is classed as biochemical. The following applies: statement in words.
As to `N[C@H]1C[C@H](CO)[C@@H](O)[C@H](O)[C@H]1O` [validamine], the α-glucosidase inhibitory activity result was “possesses a highly valuable action of suppressing the function of α-glucoside hydrolase”.

As to `N[C@H]1C[C@](O)(CO)[C@@H](O)[C@H](O)[C@H]1O` [valiolamine, 1L(1S)-(1(OH),2,4,5/1,3)-5-amino-1-hydroxymethyl-1,2,3,4-cyclohexanetetrol], the α-glucosidase inhibitory activity result was “α-glucosidase inhibitory activity”.
